# Values of other authors in US20020051751A1, “Pharmaceuticals and apparatus providing diagnosis and selective tissue necrosis” (priority 1985, published 2002).
# Test system: DNA
substance,measurement,setting,value
Bleomycin,binding constant of Bleomycin to DNA,,10^6
same,Bleomycin molecules bound per nucleotides,results from Kd of 10^6,one Bleomycin molecule bound per eight nucleotides
